# In patent US20250186396A1, “COMPOSITIONS AND METHODS FOR THE TREATMENT OF GLIOBLASTOMA WITH A DUAL TARGETING ANTI-TUMOR COMPOSITION” (Northwestern University, priority 2023, published 2025):
# System: OLFML3
# Assay: Immunoblots for OLFML3 in GBM cells and GSCs
# Type: cell-based, human and mouse
# Conditions: immunoblot
# Method: Cell Culture. The GBM cell lines U87, U251, SF763, LN229, and CT2A, as well as 293T cells were cultured in Dulbecco's Modified Eagle's Medium (DMEM; Gibco, #11995-065). The mouse glioma cell line GL261 cells and SIM-A9 microglia were cultured in Dulbecco's Modified Eagle Medium-Ham's F12 medium (Gibco, #10565-018). HMC3 microglia were cultured in Eagle's Minimum Essential Medium (ATCC, #30-2003). THP-1 macrophages were cultured in RPMI 1640 medium (Gibco, #11875093). All cell lines were cultured in the indicated medium containing 10% fetal bovine serum (FBS; Fisher Scientific, #16140071) and 1:100 antibiotic-antimycotic (Gibco, #15140-122), and were purchased from the American Type Culture Collection (ATCC). Human GSCs (GSC23 and GSC7-10) and mouse GBM tumor-derived 005 GSCs and QPP7 GSCs were cultured in neural stem cell (NSC) proliferation media (Millipore, #SCM005) containing 20 ng/mL epidermal growth factor (EGF; PeproTech, #AF-100-15) and basic fibroblast growth factor (bFGF; PeproTech, #100-18B). Human GSCs were gifted by Dr. Frederick F. Lang from the Brain Tumor Center (The University of Texas MD Anderson Cancer Center). 005 GSCs and QPP7 GSCs were provided by Dr. Samuel D. Rabkin (Massachusetts General Hospital) and Dr. Jian Hu (The University of Texas MD Anderson Cancer Center), respectively. PTEN CRISPR KO in SF763 and LN229 cells were generated. […]
Compound,"expression of OLFML3 (human (U87, PTEN-KO SF763, GSC23, GSC7-10) and mouse (CT2A, 005 GSCs) cells, BAPN at indicated concentrations)","LOX or P65 inhibition-induced OLFML3 upregulation (U87 and PTEN-KO SF763 cells, SR9009 5 μM with BAPN 200 μM or SC75741 5 μM)"
"N#CCCN [BAPN, β-aminopropionitrile]",increased,–
CCOC(=O)N1CCC(CN(Cc2ccc(Cl)cc2)Cc2ccc([N+](=O)[O-])s2)C1 (centres unmarked) [SR9009],–,rescued
